Each structure is given as a SMILES string. Some results are limits rather than exact numbers.

For the first assay, the target named is GCN2 kinase (Homo sapiens (Human), UniProt Q9P2K8). The experiment in a line: GCN2 Enzyme Inhibition Assay (Transcreener ADP2 fluorescence polarization). The format is biochemical. The settings on record: 280 μM ATP, 200 μM (RS)7 peptide, 4 nM GCN2, 25° C. The method, then: Compounds were screened for their ability to inhibit GCN2 kinase activity using a Transcreener® ADP^2 fluorescence polarization assay that detects ADP levels (BellBrook Labs, WI). Assays were carried out in a buffer consisting of 25 mM Tris-HCl (pH 7.5), 50 mM NaCl, 10 mM MgCl2 and 1 mM DTT. […] Assays were carried out at 25° C. in the presence of a (typical) final concentration of 4 nM GCN2 kinase. An assay buffer containing GCN2 kinase and (RS)7 was prepared. […] The plate was incubated for 10 minutes at 25° C. prior to the addition of 4.7 μL of ATP stock buffer to initiate the enzyme reaction. The reaction was allowed to proceed for 1 hour at 25° C., prior to the addition of 10 μL detection buffer (consisting of appropriate concentrations of ADP^2 antibody and ADP Alexa633 tracer in 1× stop and detect buffer as supplied by BellBrook Labs). […] Percentage inhibition of enzyme activity was then calculated at each compound dose. IC50 and Ki(app) (using known assay and kinetic parameters) values were calculated from percentage inhibition data using a non-linear, tight-binding algorithm. All data analysis was undertaken using the Screener® software package (Genedata, Switzerland).
Chain of GCN2 kinase (Q9P2K8 whole entry): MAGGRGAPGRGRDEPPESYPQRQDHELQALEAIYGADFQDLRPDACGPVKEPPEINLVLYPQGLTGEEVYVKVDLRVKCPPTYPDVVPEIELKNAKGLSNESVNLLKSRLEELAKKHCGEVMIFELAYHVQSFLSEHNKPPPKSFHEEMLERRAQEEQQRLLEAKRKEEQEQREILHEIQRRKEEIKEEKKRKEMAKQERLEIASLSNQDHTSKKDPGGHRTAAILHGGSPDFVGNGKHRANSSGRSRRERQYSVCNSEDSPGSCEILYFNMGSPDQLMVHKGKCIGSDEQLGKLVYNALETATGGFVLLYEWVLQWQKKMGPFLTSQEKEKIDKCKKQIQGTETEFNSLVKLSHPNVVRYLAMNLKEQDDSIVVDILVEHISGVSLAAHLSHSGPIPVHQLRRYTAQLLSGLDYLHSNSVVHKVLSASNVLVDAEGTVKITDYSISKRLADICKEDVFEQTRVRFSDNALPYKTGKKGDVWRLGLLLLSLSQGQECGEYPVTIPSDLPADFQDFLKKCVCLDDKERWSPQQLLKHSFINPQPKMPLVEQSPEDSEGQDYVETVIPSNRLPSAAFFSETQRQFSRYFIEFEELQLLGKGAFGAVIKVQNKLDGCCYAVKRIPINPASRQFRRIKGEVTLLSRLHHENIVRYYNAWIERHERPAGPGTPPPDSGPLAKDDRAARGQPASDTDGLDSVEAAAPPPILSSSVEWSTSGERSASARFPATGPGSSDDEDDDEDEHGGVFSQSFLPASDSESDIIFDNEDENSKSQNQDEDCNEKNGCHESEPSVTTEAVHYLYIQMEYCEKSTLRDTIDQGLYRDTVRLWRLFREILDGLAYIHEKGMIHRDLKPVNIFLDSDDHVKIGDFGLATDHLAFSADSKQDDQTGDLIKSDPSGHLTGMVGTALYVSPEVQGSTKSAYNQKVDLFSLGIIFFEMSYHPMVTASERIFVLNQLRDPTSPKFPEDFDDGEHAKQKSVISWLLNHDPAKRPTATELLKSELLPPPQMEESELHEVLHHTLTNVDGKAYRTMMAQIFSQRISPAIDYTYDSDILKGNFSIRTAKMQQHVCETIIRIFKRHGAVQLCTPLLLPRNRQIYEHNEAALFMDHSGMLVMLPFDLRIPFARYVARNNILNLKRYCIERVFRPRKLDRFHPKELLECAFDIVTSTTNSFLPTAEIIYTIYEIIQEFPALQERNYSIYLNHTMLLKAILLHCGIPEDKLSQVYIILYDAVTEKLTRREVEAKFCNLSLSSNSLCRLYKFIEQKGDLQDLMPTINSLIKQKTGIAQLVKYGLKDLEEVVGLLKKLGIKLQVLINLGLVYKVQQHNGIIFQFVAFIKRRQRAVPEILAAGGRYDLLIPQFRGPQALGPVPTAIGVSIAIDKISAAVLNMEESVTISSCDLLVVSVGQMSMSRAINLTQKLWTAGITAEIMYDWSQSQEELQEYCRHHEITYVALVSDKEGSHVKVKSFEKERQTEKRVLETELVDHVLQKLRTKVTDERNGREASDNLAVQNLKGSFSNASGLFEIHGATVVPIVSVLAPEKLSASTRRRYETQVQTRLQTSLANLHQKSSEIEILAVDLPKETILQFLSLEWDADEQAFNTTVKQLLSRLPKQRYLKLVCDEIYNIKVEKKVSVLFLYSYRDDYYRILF
In general terms: In fluorescence polarisation assays a small probe gives low polarisation when free and higher when bound to something large.
Take `CC1CN(c2ccnc(-c3cnc4ccc(Cl)cn34)n2)C(C)C(c2cn[nH]c2)N1` (stereo not shown) [I-122, 6-Chloro-3-(4-(2,5-dimethyl-3-(1H-pyrazol-4-yl)piperazin-1-yl)pyrimidin-2-yl)imidazo[1,2-a]pyridine]: the IC50 (usually the point on the concentration scale where inhibition reaches its midpoint) is < 10 nM.
Regarding `Cc1[nH]ncc1[C@H]1CN(c2ccnc(-c3cnc4ccc(C(F)(F)F)cn34)n2)C[C@@H](C)O1` [I-125, (2R,6S)-2-methyl-6-(5-methyl-1H-pyrazol-4-yl)-4-(2-(6-(trifluoromethyl)imidazo[1,2-a]pyridin-3-yl)pyrimidin-4-yl)morpholine], the 50% inhibitory concentration (IC50) is < 10 nM.
`C[C@H]1CN(c2ccnc(-c3cnc4ccc(C(F)(F)F)cn34)n2)C[C@H](C(N)=O)O1` [I-129, (2R,6 S)-6-methyl-4-(2-(6-(trifluoromethyl)imidazo[1,2-a]pyridin-3-yl)pyrimidin-4-yl)morpholine-2-carboxamide] gave an IC50 of 10 to 100 nM.
The same measure, in the same setting: the figure for `O=C(C1CCCN(c2ccnc(-c3cnc4ccc(C(F)(F)F)cn34)n2)C1)N1CCCC1` (stereo not shown) [I-131, pyrrolidin-1-yl(1-(2-(6-(trifluoromethyl)imidazo[1,2-a]pyridin-3-yl)pyrimidin-4-yl)piperidin-3-yl)methanone] is 100 to 1000 nM; for `NC(=O)C1CC12CCCN(c1ccnc(-c3cnc4ccc(Cl)cn34)n1)C2` (stereo not shown) [I-132, 5-(2-(6-chloroimidazo[1,2-a]pyridin-3-yl)pyrimidin-4-yl)-5-azaspiro[2.5]octane-1-carboxamide] it is 10 to 100 nM.
`COC(=O)C1CC12CCCN(c1ccnc(-c3cnc4ccc(Cl)cn34)n1)C2` (stereo not shown) [I-133, methyl 5-(2-(6-chloroimidazo[1,2-a]pyridin-3-yl)pyrimidin-4-yl)-5-azaspiro[2.5]octane-1-carboxylate]: the IC50 fell in the range of 100 to 1000 nM.
The compound `Cc1nn(C)cc1[C@H]1C[C@H](C)CN(c2nccc(-c3cnc4ccc(C(F)(F)F)cn34)n2)C1` [I-139, 3-(2-((3R,5S)-3-(1,3-dimethyl-1H-pyrazol-4-yl)-5-methylpiperidin-1-yl)pyrimidin-4-yl)-6-(trifluoromethyl)imidazo[1,2-a]pyridine] showed an IC50 of 100 to 1000 nM.
Still for that read-out and setting: the value for `Cc1nn(C)cc1[C@@H]1C[C@@H](C)CN(c2nccc(-c3cnc4ccc(C(F)(F)F)cn34)n2)C1` [I-140, 3-(2-((3S,5R)-3-(1,3-dimethyl-1H-pyrazol-4-yl)-5-methylpiperidin-1-yl)pyrimidin-4-yl)-6-(trifluoromethyl)imidazo[1,2-a]pyridine] was 100 to 1000 nM; that for `Cc1nn(C)cc1[C@@H]1C[C@H](C)CN(c2nccc(-c3cnc4ccc(C(F)(F)F)cn34)n2)C1` [I-141, 3-(2-((3S,5S)-3-(1,3-dimethyl-1H-pyrazol-4-yl)-5-methylpiperidin-1-yl)pyrimidin-4-yl)-6-(trifluoromethyl)imidazo[1,2-a]pyridine] was 100 to 1000 nM.
Take `Cc1nn(C)cc1[C@H]1C[C@@H](C)CN(c2nccc(-c3cnc4ccc(C(F)(F)F)cn34)n2)C1` [I-142, 3-(2-((3R,5R)-3-(1,3-dimethyl-1H-pyrazol-4-yl)-5-methylpiperidin-1-yl)pyrimidin-4-yl)-6-(trifluoromethyl)imidazo[1,2-a]pyridine]: the IC50 is 100 to 1000 nM.
For `NC(=O)[C@H]1CN(c2ccnc(-c3cnc4ccc(C(F)(F)F)cn34)n2)CCO1` [I-151, (R)-4-(2-(6-(trifluoromethyl)imidazo[1,2-a]pyridin-3-yl)pyrimidin-4-yl)morpholine-2-carboxamide], the IC50 is 100 to 1000 nM.
Compound `NC(=O)[C@@H]1CCCN(c2nccc(-c3cnc4ccc(C(F)(F)F)cn34)n2)C1` [I-152, (R)-1-(4-(6-(trifluoromethyl)imidazo[1,2-a]pyridin-3-yl)pyrimidin-2-yl)piperidine-3-carboxamide] gave an IC50 of 10 to 100 nM.
On the same count and under the same terms, the figure for `Cc1nn(C)cc1[C@H]1CN(c2nccc(-c3cnc4ccc(C(F)(F)F)cn34)n2)C[C@H](C)O1` [I-156, (2S,6S)-2-(1,3-dimethyl-1H-pyrazol-4-yl)-6-methyl-4-(4-(6-(trifluoromethyl)imidazo[1,2-a]pyridin-3-yl)pyrimidin-2-yl)morpholine] is 100 to 1000 nM; for `Cc1nn(C)cc1[C@H]1CN(c2nccc(-c3cnc4ccc(C(F)(F)F)cn34)n2)C[C@@H](C)O1` [I-158, (2S,6R)-2-(1,3-dimethyl-1H-pyrazol-4-yl)-6-methyl-4-(4-(6-(trifluoromethyl)imidazo[1,2-a]pyridin-3-yl)pyrimidin-2-yl)morpholine] it is 10 to 100 nM.
The same measure, in the same setting: the figure for `NC(=O)CC1CCCN(c2ccnc(-c3cnc4ccc(Cl)cn34)n2)C1` (stereo not shown) [I-162, 2-(1-(2-(6-chloroimidazo[1,2-a]pyridin-3-yl)pyrimidin-4-yl)piperidin-3-yl)acetamide] is 10 to 100 nM; for `NC(=O)C1CN(c2ccnc(-c3cnc4ccc(Cl)cn34)n2)CCO1` (stereo not shown) [I-163, 4-(2-(6-chloroimidazo[1,2-a]pyridin-3-yl)pyrimidin-4-yl)morpholine-2-carboxamide] it is 10 to 100 nM.
`NC(=O)[C@@H]1CCCN(c2ccnc(-c3cnc4ccc(Cl)cn34)n2)C1` [I-164, (R)-1-(2-(6-chloroimidazo[1,2-a]pyridin-3-yl)pyrimidin-4-yl)piperidine-3-carboxamide] showed an IC50 of 10 to 100 nM.
In turn, `O=C(O)CC1CCCN(c2ccnc(-c3cnc4ccc(C(F)(F)F)cn34)n2)C1` (stereo not shown) [I-165, 2-(1-(2-(6-(trifluoromethyl)imidazo[1,2-a]pyridin-3-yl)pyrimidin-4-yl)piperidin-3-yl)acetic acid] showed an IC50 of 10 to 100 nM.
Still for that read-out and setting: the value for `NC(=O)CC1CCCN(c2ccnc(-c3cnc4ccc(C(F)(F)F)cn34)n2)C1` (stereo not shown) [I-166, 2-(1-(2-(6-(trifluoromethyl)imidazo[1,2-a]pyridin-3-yl)pyrimidin-4-yl)piperidin-3-yl)acetamide] was 10 to 100 nM; that for `Cc1cnc(N2C[C@H](C)C[C@H](N=S(C)(C)=O)C2)nc1-c1cnc2ccc(Cl)cn12` [I-167, (((3 S,5R)-1-(4-(6-chloroimidazo[1,2-a]pyridin-3-yl)-5-methylpyrimidin-2-yl)-5-methylpiperidin-3-yl)imino)dimethyl-λ6-sulfanone] was 100 to 1000 nM.
As to `Cc1cc(-c2cnc3ccc(Cl)cn23)nc(N2C[C@H](C)C[C@H](N=S(C)(C)=O)C2)n1` [I-168, (((3 S,5R)-1-(4-(6-chloroimidazo[1,2-a]pyridin-3-yl)-6-methylpyrimidin-2-yl)-5-methylpiperidin-3-yl)imino)dimethyl-λ6-sulfanone], the IC50 fell in the range of 10 to 100 nM.
On the same count and under the same terms, the figure for `Cc1[nH]ncc1C1N[C@H](C)CN(c2nccc(-c3cnc4ccc(C(F)(F)F)cn34)n2)[C@@H]1C` (stereo partly drawn) [I-173, 3-(2-((2R,5R)-2,5-dimethyl-3-(5-methyl-1H-pyrazol-4-yl)piperazin-1-yl)pyrimidin-4-yl)-6-(trifluoromethyl)imidazo[1,2-a]pyridine] is 100 to 1000 nM.
The same measure, in the same setting: the figure for `Cc1cnc(N2CCC[C@H](C(N)=O)C2)nc1-c1cnc2ccc(Cl)cn12` [I-174, (S)-1-(4-(6-chloroimidazo[1,2-a]pyridin-3-yl)-5-methylpyrimidin-2-yl)piperidine-3-carboxamide] is 10 to 100 nM; for `CC(=O)NC1CCCN(c2ccnc(-c3cnc4ccc(C(F)(F)F)cn34)n2)C1` (stereo not shown) [I-187, N-(1-(2-(6-(trifluoromethyl)imidazo[1,2-a]pyridin-3-yl)pyrimidin-4-yl)piperidin-3-yl)acetamide] it is 10 to 100 nM.
For `CC1(C(N)=O)CCN(c2ccnc(-c3cnc4ccc(C(F)(F)F)cn34)n2)CC1` [I-188, 4-methyl-1-(2-(6-(trifluoromethyl)imidazo[1,2-a]pyridin-3-yl)pyrimidin-4-yl)piperidine-4-carboxamide], the IC50 was 10 to 100 nM.
Still for that read-out and setting: the figure for `C[C@H]1CN(c2nccc(-c3cnc4ccc(C(F)(F)F)cn34)n2)C[C@@H](c2nn[nH]n2)O1` [I-189, (2S,6S)-2-methyl-6-(2H-tetrazol-5-yl)-4-(4-(6-(trifluoromethyl)imidazo[1,2-a]pyridin-3-yl)pyrimidin-2-yl)morpholine] is 10 to 100 nM.
Still for that read-out and setting: the value for `C[C@@H]1CN(c2nccc(-c3cnc4ccc(C(F)(F)F)cn34)n2)C[C@H](c2nn[nH]n2)O1` [I-190, (2R,6R)-2-methyl-6-(2H-tetrazol-5-yl)-4-(4-(6-(trifluoromethyl)imidazo[1,2-a]pyridin-3-yl)pyrimidin-2-yl)morpholine] was 100 to 1000 nM.
Same read-out and setting: the value for `CC1(C(N)=O)CCCN(c2ccnc(-c3cnc4ccc(C(F)(F)F)cn34)n2)C1` (stereo not shown) [I-192, 3-methyl-1-(2-(6-(trifluoromethyl)imidazo[1,2-a]pyridin-3-yl)pyrimidin-4-yl)piperidine-3-carboxamide] was 10 to 100 nM; that for `O=C(O)C1CN(c2ccnc(-c3cnc4ccc(C(F)(F)F)cn34)n2)CC(F)(F)C1` (stereo not shown) [I-205, 5,5-Difluoro-1-[2-(6-trifluoromethyl-imidazo[1,2-a]pyridin-3-yl)-pyrimidin-4-yl]-piperidine-3-carboxylic acid] was 10 to 100 nM.

The assay is the same for the next values; noted with them: Ki(app); 280 μM ATP, 200 μM (RS)7 peptide, 4 nM GCN2, 25° C.
`Clc1ccc2ncc(-c3nccc(N4CCCC(c5cn[nH]c5)C4)n3)n2c1` (stereo not shown) [I-100, 2-{6-chloroimidazo[1,2-a]pyridin-3-yl}-4-[3-(1H-pyrazol-4-yl)piperidin-1-yl]pyrimidine]: the Ki was < 10 nM.
Same read-out and setting: the value for `FC(F)(F)c1ccc2ncc(-c3nccc(N4CCCC(c5cn[nH]c5)C4)n3)n2c1` (stereo not shown) [I-101, 4-[3-(1H-pyrazol-4-yl)piperidin-1-yl]-2-[6-(trifluoromethyl)imidazo[1,2-a]pyridin-3-yl]pyrimidine] was < 10 nM.

Source of the values: US10793563B2, “GCN2 inhibitors and uses thereof” (Merck Patent GmbH, priority 2018, dated 2020).
